Source: ChEMBL document CHEMBL1124059, “Atypical antipsychotic agents: patterns of activity in a series of 3-substituted 2-pyridinyl-1-piperazine derivatives” (J Med Chem, 1988)
The source made the active and inactive calls. No cut-off for these calls is given here.

Key:
Rattus norvegicus [1] = assay: Ability to reverse trifluoperazine-induced catalepsy in rat (po); IA = Compound induced catalepsy; type: functional, organism-based
D(2) dopamine receptor = D(2) dopamine receptor (Rattus norvegicus, UniProt P61169); assay: Ability to inhibit [3H]spiperone binding to Dopamine receptor D2 in rat corpus striatum; type: tissue-based
D(2) dopamine receptor, sequence (P61169 whole entry): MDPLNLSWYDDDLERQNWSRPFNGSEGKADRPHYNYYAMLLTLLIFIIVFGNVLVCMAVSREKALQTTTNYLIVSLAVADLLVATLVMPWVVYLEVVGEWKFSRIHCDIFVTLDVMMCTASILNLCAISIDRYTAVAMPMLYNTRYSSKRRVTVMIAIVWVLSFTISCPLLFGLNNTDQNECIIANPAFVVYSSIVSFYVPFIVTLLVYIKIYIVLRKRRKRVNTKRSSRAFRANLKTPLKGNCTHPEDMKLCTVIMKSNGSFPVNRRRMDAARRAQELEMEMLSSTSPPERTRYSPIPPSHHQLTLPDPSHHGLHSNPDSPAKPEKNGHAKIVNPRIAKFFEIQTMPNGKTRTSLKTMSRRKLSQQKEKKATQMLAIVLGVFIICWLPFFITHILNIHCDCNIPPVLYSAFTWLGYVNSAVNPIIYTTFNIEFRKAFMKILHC

Rattus norvegicus [2] = species on record: Rattus norvegicus; assay: Inhibition of the rat conditioned avoidance response, CAR (Tranquilizing activity, peroral); type: functional; conditions: po
Rattus norvegicus [3] = assay: In vivo inhibition of apomorphine (APO) induced stereotypy in rats (po); type: functional
[4] = target: T1, Adrenergic receptor alpha-1 (Rattus norvegicus, UniProt P15823+P23944+P43140); assay: Ability to inhibit [3H]WB-4101 binding to rat cortical alpha-1-adrenergic receptor; type: protein assay
T1 sequence (P15823 whole entry): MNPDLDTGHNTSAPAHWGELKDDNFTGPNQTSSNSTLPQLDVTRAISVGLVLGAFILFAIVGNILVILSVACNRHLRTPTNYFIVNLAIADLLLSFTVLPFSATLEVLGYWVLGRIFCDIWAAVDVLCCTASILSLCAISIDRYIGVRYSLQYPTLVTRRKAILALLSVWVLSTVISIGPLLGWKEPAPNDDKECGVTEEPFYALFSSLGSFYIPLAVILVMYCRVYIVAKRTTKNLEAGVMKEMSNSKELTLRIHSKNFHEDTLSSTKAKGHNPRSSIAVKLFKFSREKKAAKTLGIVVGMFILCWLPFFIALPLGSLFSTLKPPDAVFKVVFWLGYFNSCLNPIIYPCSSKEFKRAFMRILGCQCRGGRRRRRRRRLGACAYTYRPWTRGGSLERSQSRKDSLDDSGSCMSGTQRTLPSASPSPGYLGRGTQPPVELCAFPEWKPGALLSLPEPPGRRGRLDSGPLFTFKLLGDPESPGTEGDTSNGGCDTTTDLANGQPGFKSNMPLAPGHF
T1 sequence (P23944 whole entry): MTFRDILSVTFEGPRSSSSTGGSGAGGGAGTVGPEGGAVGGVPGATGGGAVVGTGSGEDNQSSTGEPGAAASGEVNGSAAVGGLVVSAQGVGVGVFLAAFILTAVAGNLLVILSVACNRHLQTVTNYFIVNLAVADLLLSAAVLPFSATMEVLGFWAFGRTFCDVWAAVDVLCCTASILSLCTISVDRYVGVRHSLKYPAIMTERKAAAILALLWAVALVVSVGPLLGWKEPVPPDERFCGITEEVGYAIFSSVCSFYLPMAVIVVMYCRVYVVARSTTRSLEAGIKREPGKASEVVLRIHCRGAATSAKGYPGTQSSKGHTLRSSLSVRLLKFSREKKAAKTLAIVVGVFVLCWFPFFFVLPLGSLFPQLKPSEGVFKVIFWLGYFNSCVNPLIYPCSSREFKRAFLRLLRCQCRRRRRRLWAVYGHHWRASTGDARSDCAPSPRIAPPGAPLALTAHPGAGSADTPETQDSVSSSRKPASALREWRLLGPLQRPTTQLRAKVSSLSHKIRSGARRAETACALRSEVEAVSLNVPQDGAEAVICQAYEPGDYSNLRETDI
T1 sequence (P43140 whole entry): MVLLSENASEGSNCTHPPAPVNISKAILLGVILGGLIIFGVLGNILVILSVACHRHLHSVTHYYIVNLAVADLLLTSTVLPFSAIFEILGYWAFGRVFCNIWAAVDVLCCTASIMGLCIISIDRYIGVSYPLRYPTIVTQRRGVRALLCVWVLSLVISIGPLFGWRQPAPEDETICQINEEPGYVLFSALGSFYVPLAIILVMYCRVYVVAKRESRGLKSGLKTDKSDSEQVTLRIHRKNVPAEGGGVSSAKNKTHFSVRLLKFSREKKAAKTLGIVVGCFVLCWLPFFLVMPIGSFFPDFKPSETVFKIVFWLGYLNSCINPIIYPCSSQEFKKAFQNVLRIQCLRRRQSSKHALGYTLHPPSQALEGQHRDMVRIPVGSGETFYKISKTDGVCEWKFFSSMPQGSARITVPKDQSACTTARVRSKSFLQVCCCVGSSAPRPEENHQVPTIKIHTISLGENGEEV

Rattus norvegicus [5] = assay: Induction of catalepsy in rat (po)
Rattus norvegicus [6] = assay: Ability to reverse trifluoperazine-induced catalepsy in rat (po); type: functional

| Structure (SMILES) | ED50 (Rattus norvegicus [1]) | IC50 (D(2) dopamine receptor) [nM] | ED50 (Rattus norvegicus [2]) [mg/kg] | ED50 (Rattus norvegicus [3]) [mg/kg] | IC50 [4] [nM] | ED50 (Rattus norvegicus [5]) [mg/kg] | ED50 (Rattus norvegicus [6]) [mg/kg] |
| --- | --- | --- | --- | --- | --- | --- | --- |
| Nc1cccnc1N1CCN(CCCCN2C(=O)SC3(CCCC3)C2=O)CC1 | inactive | > 1000 | > 100 |  |  |  |  |
| COc1cccnc1N1CCN(CCCCN2C(=O)SC3(CCCC3)C2=O)CC1 | inactive | 79 | 18.8 | < 57 |  |  |  |
| Cc1nnc(-c2cccnc2N2CCN(CCCCN3C(=O)CC4(CCCC4)CC3=O)CC2)o1 |  | 610 | 70.9 |  |  |  |  |
| O=C1COCC(=O)N1CCCCN1CCN(c2ncccc2[N+](=O)[O-])CC1 |  | > 1000 | 55 |  | 38.3 | 220 |  |
| O=C1SC2(CCCC2)C(=O)N1CCCCN1CCN(c2ccccn2)CC1 | inactive | 620 | 20.8 | > 95 |  |  |  |
| COc1cccc(N2CCN(CCCCN3C(=O)SC4(CCCC4)C3=O)CC2)n1 | inactive | > 1000 | 35.9 | > 100 |  |  |  |
| O=C1COCC(=O)N1CCCCN1CCN(c2ncccc2Cl)CC1 |  | > 1000 | 59.8 | > 63 | 16 |  |  |
| O=C1SC2(CCCC2)C(=O)N1CCCCN1CCN(c2ncccc2[N+](=O)[O-])CC1 |  | 69 | 25.3 | 43.6 | 34.1 |  | 44.2 |
| COc1cccc(N2CCN(CCCCN3C(=O)CC(C)(C)CC3=O)CC2)n1 |  | > 1000 | 11.9 | 76.2 | 68 | 48 |  |
| COC(=O)c1cccnc1N1CCN(CCCCN2C(=O)CC(C)(C)CC2=O)CC1 |  | > 1000 | 57 | 69.2 | 36.9 | 228 |  |
| Cc1cccnc1N1CCN(CCCCN2C(=O)CC3(CCCC3)CC2=O)CC1 |  | 476 | 46.4 |  |  | > 186 |  |
| COC(=O)c1cccnc1N1CCN(CCCCN2C(=O)SC3(CCCC3)C2=O)CC1 |  | 138 | 29.8 | 50.2 | 7.8 |  | 5.05 |
| O=Cc1cccnc1N1CCN(CCCCN2C(=O)SC3(CCCC3)C2=O)CC1 |  | 130 | 60 | 48 | 9.6 |  | 12.9 |
| O=C1SC2(CCCC2)C(=O)N1CCCCN1CCN(c2ncccc2Cl)CC1 | inactive | 160 | 66.9 | 50 | 19.9 |  |  |
| CO/N=C\c1cccnc1N1CCN(CCCCN2C(=O)SC3(CCCC3)C2=O)CC1 | inactive | 428 | 71.3 |  | 67.4 |  |  |
| CC1(C)CC(=O)N(CCCCN2CCN(c3ncccc3-c3ccccc3)CC2)C(=O)C1 |  | 109 | 67.6 |  |  | 90.8 |  |
| O=C1COCC(=O)N1CCCCN1CCN(c2ncccc2-c2ccccc2)CC1 |  | > 41 | > 100 | > 63 | 16 |  |  |
| N#Cc1cccnc1N1CCN(CCCCN2C(=O)CSC2=O)CC1 | inactive | > 1000 | 15.8 | > 100 | 39 |  |  |
| O=C1SC2(CCCC2)C(=O)N1CCCCN1CCN(c2ncccc2-c2ccccc2)CC1 | inactive | 236 | > 100 | > 100 |  |  |  |
| O=Cc1cccnc1N1CCN(CCCCN2C(=O)COCC2=O)CC1 |  | > 1000 | > 100 |  |  |  |  |
| N#Cc1cccnc1N1CCN(CCCCN2C(=O)SC3(CCCC3)C2=O)CC1 |  | 34 | 38 | 29.3 | 35 |  | 9.2 |
| CN1CCN(C2=Nc3cc(Cl)ccc3Nc3ccccc32)CC1 | inactive |  |  |  |  |  |  |
| O=C1CSC(=O)N1CCCCN1CCN(c2ccccn2)CC1 | inactive | > 1000 | 45.8 |  |  |  |  |
| Cc1cccnc1N1CCN(CCCCN2C(=O)SC3(CCCC3)C2=O)CC1 | inactive | 630 | 46.4 | > 50 |  |  |  |
| Cc1cccnc1N1CCN(CCCCN2C(=O)CC(C)(C)CC2=O)CC1 |  | > 1000 | 42.1 | > 100 |  | > 200 |  |
| CC1(C)CC(=O)N(CCCCN2CCN(c3ncccc3Cl)CC2)C(=O)C1 |  | 360 | 25.9 |  |  | 104 |  |
